One data set has as its system human CD19+ B cells. Kind of data set: B-cell assay: IgG production of ODN2006-stimulated primary B cells (AlphaLISA). To be noted: Homo sapiens, B-cell. The data set is classed as cell-based.
The subject of data set [1] is human PBMCs (responder cells) with RPMI1788 stimulator cells. Kind of data set: Mixed Lymphocyte Reaction (MLR, T cell assay), 3H-thymidine incorporation. The data set is classed as cell-based. As to conditions: for IC50: Homo sapiens, RPMI-1788, mean of 4 independent measures, read-out: T-cell efficacy, MLR IC 50 (µM) Mean.
Method: In order to test the efficacy and selectivity of the hit compounds on B-cells, 4 assays were performed: B-cell assay, Mixed Lymphocyte Reaction (MLR), WST-1 assay on RPMI1788 cells (B-cell line) and cytotoxicity WST-1 assay on Jurkat cells (T-cell line). Compounds were prepared as 10 mM stock solutions in dimethylsulfoxide (DMSO)and were tested at 50-10-1-0.1-0.01 and 0.001 μM in the 4 assays.
Blood samples of healthy volunteers were collected at the Red Cross of Mechelen, Belgium. Each donor consents to the use of their blood for research purposes. […] The human B cell line RPMI1788 (American Type Culture Collection, USA) and the human T cell line Jurkat (European Collection of Cell Cultures, ECACC, England) were maintained in RPMI1640 culture medium (BioWhittaker®, Lonza, Verviers, Belgium) containing 10% foetal calf serum (FCS, HyClone® Thermo Scientific, United Kingdom) and 5 μg/mL gentamicin sulphate (BioWhittaker®, Lonza, Verviers, Belgium) at 37°C and 5% CO2.
MLR assay (T cell assay): Freshly isolated human PBMCs (responder cells) were resuspended in RPMI1640 medium containing 10% FCS and 5nμg/mL gentamicin sulphate. RPMI1788 cells (stimulator cells) were inactivated by treatment with mitomycin C (Kyowa®, Takeda Belgium, Brussels, Belgium) for 20 min at 37°C, washed and finally suspended in culture medium. An amount of 100 μL of each cell suspension was mixed with 20 μL of diluted compound. The mixed cells were cultured at 37°C for 6 days in 5% CO2. DNA synthesis was assayed by the addition of 10 μCi (methyl-3H) thymidine (Perkin Elmer, Zaventem, Belgium) per well during the last 18 h in culture. Thereafter, the cells were harvested on glass filter paper and the counts per minute determined in a liquid scintillation counter (TopCount, Perkin Elmer, Zaventem, Belgium).
Data set [2] can be described thus: WST-1 cytotoxicity assay on RPMI1788 cells (B-cell line). To be noted: human, RPMI1788 cells (B-cell line), mean of 4 independent measures, read-out: Cytotoxicity, WST-1 RPMI 1788 IC 50 (µM) Mean. The data set is classed as cell-based, human.
The target in the next data set is T1, CK1d (Homo sapiens, UniProt P48730).
T1 construct: purchased ReactionBiology
The experiment in a line: Kinase activity test (ReactionBiology), % enzyme activity relative to DMSO. The data set is classed as biochemical. To be noted: CK1d.

The target of a further data set is VEGFR2 (Homo sapiens, UniProt P35968). The data set is described as above. The data set is classed as biochemical. More on the design: purchased ReactionBiology. As to conditions: VEGFR2.
A further data set addresses T2, NEK2 (Homo sapiens, UniProt P51955).
T2 construct: purchased ReactionBiology
T2 sequence (P51955 1-445): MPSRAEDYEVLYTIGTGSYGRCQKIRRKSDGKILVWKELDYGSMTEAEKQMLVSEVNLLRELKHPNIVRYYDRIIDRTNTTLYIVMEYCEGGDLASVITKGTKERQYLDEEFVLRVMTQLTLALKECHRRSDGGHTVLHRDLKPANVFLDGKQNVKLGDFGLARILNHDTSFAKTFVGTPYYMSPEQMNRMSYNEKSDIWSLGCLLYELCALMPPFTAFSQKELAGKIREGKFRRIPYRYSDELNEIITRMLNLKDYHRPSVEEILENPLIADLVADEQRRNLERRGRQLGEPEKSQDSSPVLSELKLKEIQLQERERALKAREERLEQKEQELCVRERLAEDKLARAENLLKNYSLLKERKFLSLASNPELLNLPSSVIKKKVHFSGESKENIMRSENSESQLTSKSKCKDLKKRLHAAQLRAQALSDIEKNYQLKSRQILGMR
The description is as above. In kind it is biochemical.

Data set [3] is described as follows: WST-1 cytotoxicity assay on Jurkat cells (T-cell line). To be noted: human, Jurkat cells (T-cell line), mean of 4 independent measures, read-out: Cytotoxicity, WST-1 Jurkat IC 50 (µM) Mean. In kind it is cell-based, human.
Method: Compounds were prepared as 10 mM stock solutions in dimethylsulfoxide (DMSO)and were tested at 50-10-1-0.1-0.01 and 0.001 μM in the 4 assays.
The human B cell line RPMI1788 (American Type Culture Collection, USA) and the human T cell line Jurkat (European Collection of Cell Cultures, ECACC, England) were maintained in RPMI1640 culture medium (BioWhittaker®, Lonza, Verviers, Belgium) containing 10% foetal calf serum (FCS, HyClone® Thermo Scientific, United Kingdom) and 5 μg/mL gentamicin sulphate (BioWhittaker®, Lonza, Verviers, Belgium) at 37°C and 5% CO2.
WST-1 assays on RPMI-1788 cells and Jurkat cells were performed as follows: 20 μL of test compound dilution were added to each well containing exponential growing cells and the plates were incubated for 48 h at 37°C, 5% CO2. Untreated cells and positive control (1% triton X-100, for the last 15 min) served as reference for maximum and minimum viability. At the end of incubation 100 μL of supernatant were removed and replaced by 10 μL of WST-1 solution (Cell Proliferation Reagent WST-1, Roche Applied Science).
The target of a further data set is T3, DAPK1 (Homo sapiens, UniProt P53355).
T3 construct: purchased ReactionBiology
Kind of data set: Kinase activity test (ReactionBiology), % enzyme activity relative to DMSO. As to conditions: DAPK1. The data set is classed as biochemical.

[4] abbreviates: 168 h, IgG production, ODN2006 0.1 μM, 7 days, mean of 4 independent experiments, read-out: B-cell IC50.
The mark [5] stands for this setting: Average, read-out: % Enzyme Activity (relative to DMSO controls), Average.
Where [6] appears, read: replicate Data 1, read-out: % Enzyme Activity (relative to DMSO controls), Data 1.
Setting [7] is: replicate Data 2, read-out: % Enzyme Activity (relative to DMSO controls), Data 2.
[8] abbreviates: 1 uM, Average, read-out: % Enzyme Activity (relative to DMSO controls), Average.
Setting [9] is: 1 uM, replicate Data 1, read-out: % Enzyme Activity (relative to DMSO controls), Data 1.
Where [10] appears, read: 1 uM, replicate Data 2, read-out: % Enzyme Activity (relative to DMSO controls), Data 2.
The mark [11] stands for this setting: NEK2, 1 uM, Average, read-out: % Enzyme Activity (relative to DMSO controls), Average.
Setting [12] is: NEK2, 1 uM, replicate Data 1, read-out: % Enzyme Activity (relative to DMSO controls), Data 1.
[13] abbreviates: NEK2, 1 uM, replicate Data 2, read-out: % Enzyme Activity (relative to DMSO controls), Data 2.
Setting [14] is: NEK2, 10 uM, Average, read-out: % Enzyme Activity (relative to DMSO controls), Average.
[15] abbreviates: NEK2, 10 uM, replicate Data 1, read-out: % Enzyme Activity (relative to DMSO controls), Data 1.
Setting [16] is: NEK2, 10 uM, replicate Data 2, read-out: % Enzyme Activity (relative to DMSO controls), Data 2.
Setting [17] is: NEK2, compound 1μM, relative to DMSO controls, read-out: % Enzyme activity at 1μM.
Where [18] appears, read: NEK2, compound 10μM, relative to DMSO controls, read-out: % Enzyme activity at 10μM.
The mark [19] stands for this setting: read-out: % Enzyme Activity (relative to DMSO controls), Average.
Where [20] appears, read: read-out: % Enzyme Activity (relative to DMSO controls), Data 1.
[21] abbreviates: read-out: % Enzyme Activity (relative to DMSO controls), Data 2.
[22] abbreviates: compound 1μM, relative to DMSO controls, read-out: % Enzyme activity at 1μM.

Read-outs that look alike come from different tables or passages of the source.
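Throughout, for inhibition of the kinase activity (strong/weak): VEGFR2 was one member of a ten-kinase screening panel testing marketed FDA-approved drugs.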

VEGFR2, sequence (P35968 20-1356): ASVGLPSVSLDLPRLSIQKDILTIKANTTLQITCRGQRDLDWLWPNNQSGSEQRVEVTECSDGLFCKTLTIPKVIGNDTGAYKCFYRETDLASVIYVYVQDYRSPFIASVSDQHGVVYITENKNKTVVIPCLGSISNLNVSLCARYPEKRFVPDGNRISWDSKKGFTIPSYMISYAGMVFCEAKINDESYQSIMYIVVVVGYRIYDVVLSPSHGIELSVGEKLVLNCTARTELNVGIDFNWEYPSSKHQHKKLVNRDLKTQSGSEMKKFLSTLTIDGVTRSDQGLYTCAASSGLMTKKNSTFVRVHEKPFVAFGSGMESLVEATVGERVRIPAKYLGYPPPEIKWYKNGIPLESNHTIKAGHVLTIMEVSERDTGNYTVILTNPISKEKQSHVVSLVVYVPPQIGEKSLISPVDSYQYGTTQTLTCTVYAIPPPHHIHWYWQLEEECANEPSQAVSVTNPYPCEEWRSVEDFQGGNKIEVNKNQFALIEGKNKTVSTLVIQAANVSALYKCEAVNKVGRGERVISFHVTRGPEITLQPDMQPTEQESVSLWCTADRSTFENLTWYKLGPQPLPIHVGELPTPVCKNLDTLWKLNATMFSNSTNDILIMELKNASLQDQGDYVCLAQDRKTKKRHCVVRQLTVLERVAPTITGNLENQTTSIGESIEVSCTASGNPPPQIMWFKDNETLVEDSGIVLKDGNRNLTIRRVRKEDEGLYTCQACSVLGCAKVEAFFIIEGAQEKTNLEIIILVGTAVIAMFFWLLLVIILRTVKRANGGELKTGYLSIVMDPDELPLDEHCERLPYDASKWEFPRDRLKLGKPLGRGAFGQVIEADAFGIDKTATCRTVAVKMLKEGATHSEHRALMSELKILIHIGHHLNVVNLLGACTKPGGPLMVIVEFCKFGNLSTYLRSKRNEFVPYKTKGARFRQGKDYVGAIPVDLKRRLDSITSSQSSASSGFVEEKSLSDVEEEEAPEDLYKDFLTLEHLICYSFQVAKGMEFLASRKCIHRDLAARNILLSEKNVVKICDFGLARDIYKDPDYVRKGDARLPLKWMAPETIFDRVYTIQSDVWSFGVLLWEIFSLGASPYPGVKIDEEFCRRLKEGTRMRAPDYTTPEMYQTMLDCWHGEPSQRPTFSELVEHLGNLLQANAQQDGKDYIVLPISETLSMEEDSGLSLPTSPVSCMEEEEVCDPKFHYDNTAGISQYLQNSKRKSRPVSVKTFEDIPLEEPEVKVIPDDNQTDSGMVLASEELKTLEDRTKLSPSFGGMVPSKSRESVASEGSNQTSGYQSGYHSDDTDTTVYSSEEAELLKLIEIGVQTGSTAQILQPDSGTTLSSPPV
T3 sequence (P53355 whole entry): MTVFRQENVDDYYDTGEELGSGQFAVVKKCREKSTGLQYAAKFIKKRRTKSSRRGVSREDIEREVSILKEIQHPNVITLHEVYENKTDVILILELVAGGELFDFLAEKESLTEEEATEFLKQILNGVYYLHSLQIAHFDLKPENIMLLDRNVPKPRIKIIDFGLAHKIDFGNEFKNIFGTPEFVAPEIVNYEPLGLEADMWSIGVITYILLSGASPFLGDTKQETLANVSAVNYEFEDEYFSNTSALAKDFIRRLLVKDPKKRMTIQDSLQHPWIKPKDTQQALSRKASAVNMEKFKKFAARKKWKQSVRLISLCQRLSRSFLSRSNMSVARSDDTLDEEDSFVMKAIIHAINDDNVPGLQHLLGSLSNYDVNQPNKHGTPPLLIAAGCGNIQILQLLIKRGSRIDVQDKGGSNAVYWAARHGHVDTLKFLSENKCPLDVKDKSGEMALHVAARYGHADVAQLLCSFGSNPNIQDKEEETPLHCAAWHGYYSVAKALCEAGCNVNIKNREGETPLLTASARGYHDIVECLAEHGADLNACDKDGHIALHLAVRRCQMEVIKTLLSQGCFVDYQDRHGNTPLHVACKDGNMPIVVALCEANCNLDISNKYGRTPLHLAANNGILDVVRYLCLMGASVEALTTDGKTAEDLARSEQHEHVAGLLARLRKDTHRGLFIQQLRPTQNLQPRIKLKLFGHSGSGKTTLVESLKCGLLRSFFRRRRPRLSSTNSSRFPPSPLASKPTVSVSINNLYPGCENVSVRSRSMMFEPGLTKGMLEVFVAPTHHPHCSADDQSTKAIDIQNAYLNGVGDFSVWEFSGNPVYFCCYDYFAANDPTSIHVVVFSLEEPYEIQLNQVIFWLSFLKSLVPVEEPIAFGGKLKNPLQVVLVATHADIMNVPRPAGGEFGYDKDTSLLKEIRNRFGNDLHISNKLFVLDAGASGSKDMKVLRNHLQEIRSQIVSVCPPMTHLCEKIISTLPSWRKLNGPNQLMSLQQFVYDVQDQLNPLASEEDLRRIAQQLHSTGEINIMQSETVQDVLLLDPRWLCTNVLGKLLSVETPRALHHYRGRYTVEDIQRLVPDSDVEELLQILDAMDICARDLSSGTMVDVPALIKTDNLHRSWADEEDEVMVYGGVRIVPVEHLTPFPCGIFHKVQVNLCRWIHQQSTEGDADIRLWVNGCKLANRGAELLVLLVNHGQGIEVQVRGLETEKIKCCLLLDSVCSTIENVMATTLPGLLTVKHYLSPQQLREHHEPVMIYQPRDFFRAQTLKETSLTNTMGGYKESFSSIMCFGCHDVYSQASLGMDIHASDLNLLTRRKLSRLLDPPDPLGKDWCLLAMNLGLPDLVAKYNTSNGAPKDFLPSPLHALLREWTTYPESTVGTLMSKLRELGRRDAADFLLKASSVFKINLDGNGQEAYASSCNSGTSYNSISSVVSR
T1 sequence (P48730 whole entry): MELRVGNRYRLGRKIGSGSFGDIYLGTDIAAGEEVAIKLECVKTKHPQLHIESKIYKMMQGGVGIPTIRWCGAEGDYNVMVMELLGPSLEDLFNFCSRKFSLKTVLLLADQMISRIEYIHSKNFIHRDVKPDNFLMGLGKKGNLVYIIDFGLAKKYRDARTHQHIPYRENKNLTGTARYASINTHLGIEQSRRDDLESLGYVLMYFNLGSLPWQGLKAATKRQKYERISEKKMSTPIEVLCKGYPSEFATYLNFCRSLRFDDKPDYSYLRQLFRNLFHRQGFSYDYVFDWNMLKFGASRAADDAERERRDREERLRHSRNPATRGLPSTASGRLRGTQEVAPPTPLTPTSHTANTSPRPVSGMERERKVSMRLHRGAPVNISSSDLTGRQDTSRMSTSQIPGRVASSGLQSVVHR

As for `N[C@@H](Cc1cc(I)c(Oc2cc(I)c(O)c(I)c2)c(I)c1)C(=O)O` [Thyroxine, reference compound], the IC50 in the data set with human CD19+ B cells (setting [4]) was 34.1 µM; in data set [1], greater than 50 µM. Also, the IC50 at 48 h in data set [2] and in data set [3] was greater than 50 µM each time. Moreover, the remaining activity at 1 µM on CK1d (setting [5]) is 106%; on CK1d (setting [6]), 106%; at CK1d (setting [7]), 106%; on VEGFR2 (setting [8]), 104%; at VEGFR2 (setting [9]) it was 106%; on VEGFR2 (setting [10]), 103%. The remaining activity at 1 µM is 90.2% on NEK2 (setting [11]), 91.2% at NEK2 (setting [12]), 89.1% at NEK2 (setting [13]) and 90.2% at NEK2 (setting [17]). The remaining activity at 10 µM at CK1d (setting [5]) came to 97.2%; on CK1d (setting [6]) it was 99.7%; on CK1d (setting [7]), 94.7%; on VEGFR2 (setting [5]) it was 86.6%; on VEGFR2 (setting [6]) it was 89.7%; at VEGFR2 (setting [7]), 83.5%. In addition, the remaining activity at 10 µM on NEK2 (setting [14]) is 48.1%; on NEK2 (setting [15]) it was 47.1%; on NEK2 (setting [16]), 49.1%; at NEK2 (setting [18]) it was 48.1%.

For the compound `Oc1c(Cl)cc(Cl)c(Cl)c1Cc1c(O)c(Cl)cc(Cl)c1Cl` [Hexachlorophene, reference compound], the results for the IC50 (in the data set with human CD19+ B cells (setting [4]); in data set [1]) were 5.34 µM and 1.42 µM, respectively. In addition, the figures for the IC50 at 48 h in data set [2] and in data set [3] were 4.2 µM and 5.88 µM, respectively. In addition, the remaining activity at 1 µM worked out at 84.9% on NEK2 (setting [19]), 85.4% at NEK2 (setting [20]), 84.5% on NEK2 (setting [21]) and 84.9% on NEK2 (read-out: % Enzyme activity at 1μM). The remaining activity at 10 µM is 0.02% on NEK2 (setting [19]), -0.21% on NEK2 (setting [20]), 0.25% on NEK2 (setting [21]) and 0.02% at NEK2 (read-out: % Enzyme activity at 10μM).

For the compound `C=CC(=O)N1CCC[C@@H](n2nc(-c3ccc(Oc4ccccc4)cc3)c3c(N)ncnc32)C1` [Ibrutinib, reference compound], the IC50 in the data set with human CD19+ B cells (setting [4]) turned out to be 0.0002 µM; with human CD19+ B cells (mean of 4 independent measures, read-out: B-cell efficacy, B cell IC 50 (µM) Mean), 0.000181 µM; in data set [1] it was 1 µM. The remaining activity at 1 µM at DAPK1 (setting [8]) came to 95.6%; on DAPK1 (setting [9]), 97.4%; on DAPK1 (setting [10]), 93.8%; on DAPK1 (setting [22]) it was 95.6%; on VEGFR2 (setting [8]) it was 19.5%; on VEGFR2 (setting [9]) it was 19.6%. Further, the remaining activity at 1 µM at VEGFR2 (setting [10]) and at VEGFR2 (setting [22]) was 19.5% each time. In addition, the remaining activity at 10 µM on DAPK1 (10 uM, Average, read-out: % Enzyme Activity (relative to DMSO controls), Average) was 23.7%; on DAPK1 (10 uM, replicate Data 1, read-out: % Enzyme Activity (relative to DMSO controls), Data 1) it was 24%; at DAPK1 (10 uM, replicate Data 2, read-out: % Enzyme Activity (relative to DMSO controls), Data 2), 23.5%; at DAPK1 (compound 10μM, relative to DMSO controls, read-out: % Enzyme activity at 10μM) it was 23.7%; at VEGFR2 (setting [6]) it was 1.46%; on VEGFR2 (setting [7]), 1.53%. Also, the values for the IC50 at 48 h in data set [2] and in data set [3] were 0.7 µM and 14.7 µM, respectively. In addition, the “inhibition of the kinase activity (strong/weak)” value against VEGFR2 (at 10 and 1 μM) is “strong (We considered a 50% inhibition of the kinase activity as strong)”.

For `Nc1ccc2cc3ccc(N)cc3nc2c1` [Proflavine, reference compound], the values for the IC50 (in the data set on human CD19+ B cells (setting [4]); in data set [1]) were 0.59 µM and 4.39 µM, respectively. In data set [1] (ratio of IC50 values), the “Selectivity Index (SI) MLR/B-cell” value is reported as 7.5. Moreover, the results for the IC50 at 48 h in data set [2] and in data set [3] were 3.01 µM and 5 µM, respectively. Further, the remaining activity at 1 µM on NEK2 (setting [11]), at NEK2 (setting [12]), at NEK2 (setting [13]) and on NEK2 (setting [17]) was 104% throughout. Further, the remaining activity at 10 µM on NEK2 (setting [14]) came to 51.6%; at NEK2 (setting [15]), 49%; at NEK2 (setting [16]), 54.1%; on NEK2 (setting [18]) it was 51.6%.

Values taken from PMC7252619 (PLoS ONE, 2020).
